Source: ChEMBL document CHEMBL5154722, “Identification of new potent anticancer derivatives through simplifying the core structure and modification on their 14- hydroxyl group from oridonin” (Eur J Med Chem, 2022)

Columns and labels:
K562 [1] = experiment: Induction of apoptosis in human K562 cells assessed as viable cells at 100 nM measured after 48 hrs by Annexin V-FITC/PI staining based flow cytometry method (reference value: 94.41%); format: functional; settings: read-out: Activity
K562 [2] = experiment: Antiproliferative activity against human K562 cells assessed as reduction in cell viability incubated for 72 hrs by MTT assay; format: functional, cell-based; settings: K562, 72 h
K562 [3] = experiment: Induction of apoptosis in human K562 cells assessed as reduction in phosphorylated Akt level measured after 48 hrs by Western blot analysis; format: functional, cell-based; settings: dose 25-100 nM, DDE = dose-dependent effect
K562 [4] = experiment: Induction of apoptosis in human K562 cells assessed as necrotic cells at 50 nM measured after 48 hrs by Annexin V-FITC/PI staining based flow cytometry method (reference value: 0.44%); format: functional
K562 [5] = experiment: Induction of apoptosis in human K562 cells assessed as late apoptotic cells at 100 nM measured after 48 hrs by Annexin V-FITC/PI staining based flow cytometry method (reference value: 3.53%); format: functional
[6] = Toxicity in ICR mouse allografted with mouse H22 cells assessed as effect on kidney morphology at 10 to 20 mg/kg, iv administered once a day for 21 days after 7 days of tumor implantation by H and E staining method; format: organism-based; settings: in vivo, 504 h, dose 10-20 mg/kg, time 21 day
K562 [7] = experiment: Induction of cell cycle arrest in human K562 cells assessed as accumulation of cells at S phase at 25 nM measured after 48 hrs by propidium iodide staining-based flow cytometric analysis (reference value: 37.29%); format: functional
K562 [8] = experiment: Induction of apoptosis in human K562 cells assessed as reduction in phosphorylated ERK level measured after 48 hrs by Western blot analysis; format: functional, cell-based; settings: dose 25-100 nM, DDE = dose-dependent effect
K562 [9] = experiment: Induction of cell cycle arrest in human K562 cells assessed as accumulation of cells at S phase at 100 nM measured after 48 hrs by propidium iodide staining-based flow cytometric analysis (reference value: 37.29%); format: functional
SMMC-7721 = experiment: Antiproliferative activity against human […] cells assessed as reduction in cell viability incubated for 72 hrs by MTT assay; format: functional, cell-based; settings: SMMC-7721, 72 h
K562 [10] = experiment: Induction of apoptosis in human K562 cells assessed as late apoptotic cells at 25 nM measured after 48 hrs by Annexin V-FITC/PI staining based flow cytometry method (reference value: 3.53%); format: functional
K562 [11] = experiment: Inhibition of MAPK signaling pathway in human K562 cells assessed as reduction in phosphorylated MEK measured after 48 hrs by Western blot analysis; format: cell-based; settings: dose 25-100 nM, DDE = dose-dependent effect
[12] = Toxicity in ICR mouse allografted with mouse H22 cells assessed as effect on heart morphology at 10 to 20 mg/kg, iv administered once a day for 21 days after 7 days of tumor implantation by H and E staining method; format: organism-based; settings: in vivo, 504 h, dose 10-20 mg/kg, time 21 day
K562 [13] = experiment: Induction of apoptosis in human K562 cells assessed as late apoptotic cells at 50 nM measured after 48 hrs by Annexin V-FITC/PI staining based flow cytometry method (reference value: 3.53%); format: functional
K562 [14] = experiment: Induction of cell cycle arrest in human K562 cells assessed as accumulation of cells at G1 phase at 25 nM measured after 48 hrs by propidium iodide staining-based flow cytometric analysis (reference value: 47.40%); format: functional
MCF7 = experiment: Antiproliferative activity against human MCF7 cells assessed as reduction in cell viability incubated for 72 hrs by MTT assay; format: functional, cell-based; settings: MCF7, 72 h
MDA-MB-231 = experiment: Antiproliferative activity against human MDA-MB-231 cells assessed as reduction in cell viability incubated for 72 hrs by MTT assay; format: functional, cell-based; settings: MDA-MB-231, 72 h
K562 [15] = experiment: Induction of apoptosis in human K562 cells assessed as reduction in phosphorylated PI3K level measured after 48 hrs by Western blot analysis; format: functional, cell-based; settings: dose 25-100 nM, DDE = dose-dependent effect
K562 [16] = experiment: Induction of apoptosis in human K562 cells assessed as necrotic cells at 100 nM measured after 48 hrs by Annexin V-FITC/PI staining based flow cytometry method (reference value: 0.44%); format: functional
K562 [17] = experiment: Inhibition of MAPK signaling pathway in human K562 cells assessed as reduction in MEK level measured after 48 hrs by Western blot analysis; format: cell-based; settings: dose 25-100 nM, DDE = dose-dependent effect
K562 [18] = experiment: Induction of cell cycle arrest in human K562 cells assessed as accumulation of cells at S phase at 50 nM measured after 48 hrs by propidium iodide staining-based flow cytometric analysis (reference value: 37.29%); format: functional
K562 [19] = experiment: Inhibition of MAPK signaling pathway in human K562 cells assessed as reduction in Raf level measured after 48 hrs by Western blot analysis; format: cell-based; settings: dose 25-100 nM, DDE = dose-dependent effect
K562 [20] = experiment: Induction of cell cycle arrest in human K562 cells assessed as accumulation of cells at G1 phase at 100 nM measured after 48 hrs by propidium iodide staining-based flow cytometric analysis (reference value: 47.40%); format: functional
[21] = Toxicity in ICR mouse allografted with mouse H22 cells assessed as effect on lung morphology at 10 to 20 mg/kg, iv administered once a day for 21 days after 7 days of tumor implantation by H and E staining method; format: organism-based; settings: in vivo, 504 h, dose 10-20 mg/kg, time 21 day
SW480 = experiment: Antiproliferative activity against human SW480 cells assessed as reduction in cell viability incubated for 72 hrs by MTT assay; format: functional, cell-based; settings: SW480, 72 h
[22] = Selectivity index, ratio of IC50 for human L02 cells to IC50 for human SMMC-7721 cells; format: toxicity; settings: L02 cells and SMMC-7721 cells, read-out: Ratio IC50
K562 [23] = experiment: Induction of apoptosis in human K562 cells assessed as reduction in phosphorylated mTOR level measured after 48 hrs by Western blot analysis; format: functional, cell-based; settings: dose 25-100 nM, DDE = dose-dependent effect
HeLa = experiment: Antiproliferative activity against human HeLa cells assessed as reduction in cell viability incubated for 72 hrs by MTT assay; format: functional, cell-based
H22 = experiment: Antitumor activity against mouse H22 cells allografted in ICR mouse assessed as reduction in tumor weight at 10 mg/kg, iv administered once a day for 21 days after 7 days of tumor implantation; format: functional; parameters: scale not given: the % may be the effect or the level left; settings: time 21 day
K562 [24] = experiment: Induction of apoptosis in human K562 cells assessed as intracellular ROS generation measured after 48 hrs by DCFH-DA staining based flow cytometry method; format: functional, cell-based; settings: dose 25-100 nM, DDE = dose-dependent effect
K562 [25] = experiment: Induction of cell cycle arrest in human K562 cells assessed as accumulation of cells at G2 phase at 25 nM measured after 48 hrs by propidium iodide staining-based flow cytometric analysis (reference value: 15.30%); format: functional
K562 [26] = experiment: Induction of apoptosis in human K562 cells assessed as early apoptotic cells at 25 nM measured after 48 hrs by Annexin V-FITC/PI staining based flow cytometry method (reference value: 1.62%); format: functional
K562 [27] = experiment: Disruption of mitochondria in human K562 cells assessed as reduction of mitochondrial membrane potential measured after 48 hrs by JC-1 probe based fluorescence based assay; format: functional, cell-based; settings: dose 25-100 nM, DDE = dose-dependent effect
K562 [28] = experiment: Induction of apoptosis in human K562 cells assessed as early apoptotic cells at 100 nM measured after 48 hrs by Annexin V-FITC/PI staining based flow cytometry method (reference value: 1.62%); format: functional
[29] = Cytotoxicity against human L02 cells assessed as reduction in cell viability incubated for 72 hrs by MTT assay; format: toxicity, cell-based

For C=C1C(=O)[C@]23[C@H](OC(=O)/C=C/c4ccncc4)[C@H]1CC[C@H]2[C@]12CCCC(C)(C)[C@H]1[C@H](O)[C@@]3(O)OC2, the viability at 0.1 µM (K562 [1]) was 33%, the IC50 (K562 [2]) was 90 nM and the Activity (K562 [3]) was “Dde”. The Activity (K562 [4]) was 0.07%, the Activity (K562 [5]) was 20.92% and the Activity [6] was “Non-Toxic”. The Activity (K562 [7]) was 38.36%, the Activity (K562 [8]) was “Dde” and the Activity (K562 [9]) was 35.31%. For the same compound, the IC50 (SMMC-7721) was 450 nM, the Activity (K562 [10]) was 6.87% and the Activity (K562 [11]) was “Dde”. For the same compound, the Activity [12] was “Non-Toxic”, the Activity (K562 [13]) was 19.26% and the Activity (K562 [14]) was 39.5%. For the same compound, the IC50 (MCF7) was 700 nM, the IC50 (MDA-MB-231) was 420 nM and the Activity (K562 [15]) was “Dde”. For the same compound, the Activity (K562 [16]) was 3.25%, the Activity (K562 [17]) was “Dde” and the Activity (K562 [18]) was 36.52%. The Activity (K562 [19]) was “Dde”, the Activity (K562 [20]) was 33.85% and the Activity [21] was “Non-Toxic”. The IC50 (SW480) was 1030 nM, the selectivity ratio [22] was 7.12 and the Activity (K562 [23]) was “Dde”. The IC50 (HeLa) was 1130 nM, the Activity (H22) was 74.08% and the Activity (K562 [24]) was “Dde”. For the same compound, the Activity (K562 [25]) was 22.14%, the Activity (K562 [26]) was 10.6% and the Activity (K562 [27]) was “Dde”. For the same compound, the Activity (K562 [28]) was 42.81% and the IC50 at 72 h [29] was 3180 nM.
